# Data from patent publication US10285988B2, “Compounds for treatment of fibrosis diseases” (CUREGENIX, INC., priority 2013, dated 2019).
# Test system: WNT pathway
# Assay: WNT pathway reporter gene assay (NIH3T3 TCF-Luc cells co-cultured with 293 WNT3a cells)
# Format: cell-based
# Settings: Mus musculus, co-culture 16 hours, luciferase luminescence reduced by 50%
# Procedure: Materials and Methods: NIH3T3 mouse fibroblast cells (American Type Culture Collection, Manassas, Va.) were transfected with a plasmid containing a luciferase gene driven by 5 copies of TCF elements. Stale cells selected with 1 μg/mL of Zeocin (Gibco/Invitrogen, Carlsbad, Calif.) are cultured in Dulbecco's modified Eagle's medium (Invitrogen, Carlsbad, Calif.) supplemented with 10% FBS (Invitrogen), 50 unit/mL penicillin and 50 μg/mL of streptomycin (Invitrogen) at 37° C. with 5% CO2 in air atmosphere.
# After 16 hours, the firefly luciferase activities are measured with the Steady-Glo™ Luciferase Assay System (Promega). The cells were treated with different concentrations of compounds of this invention during the co-culture. […] To normalize for cell quantity and viability, CellTiter Glo assay is next performed in a duplicate plate.
row,IC50 [nM],Structure (SMILES)
1,< 3,"Cc1cc(-c2ccc(CNc3nccc4cc(-c5ccnc(C)c5)ncc34)cc2)ccn1 [Compound 1, N-(4-(2-methylpyridin-4-yl)benzyl)-6-(2-methylpyridin-4-yl)-2,7-naphthyridin-1-amine]"
2,< 3,"Cc1cc(-c2cc3ccnc(NCc4ccc(-c5ccnc(C)c5)c(C)c4)c3cn2)ccn1 [Compound 2, N-(3-methyl-4-(2-methylpyridin-4-yl)benzyl)-6-(2-methylpyridin-4-yl)-2,7-naphthyridin-1-amine]"
3,< 3,Cc1cc(-c2cc3ccnc(NCc4ccc(-c5ccnc(F)c5)c(F)c4)c3cn2)ccn1 [Compound 28]
4,< 3,Cc1cc(-c2ccc(CNc3nccc4cc(-c5cnccn5)ncc34)cc2)ccn1 [Compound 35]
5,< 3,Cc1cc(-c2ncc(CNc3nccc4cc(-c5cnccn5)ccc34)cc2C)ccn1 [Compound 70]
